Assay results reported in patent publication US9504685B2, “Method for treating a pulmonary hypertension condition” (Gilead Sciences, Inc., priority 2006, dated 2016).

Legend:
p450 = conditions: cited from earlier work
subjects with PAH = assay: Example 1 (ARIES-2) Phase III trial, disposition, safety and tolerability; format: in vivo; conditions: for Subjects who died: 12 weeks
Procedure: Change from Week 0 to Week 12 was determined.

ETA receptor = target: T1, ETA receptor (Homo sapiens, UniProt P25101); conditions: read-out: affinity for the ETA receptor; cited from earlier work
T1 sequence (P25101 21-427): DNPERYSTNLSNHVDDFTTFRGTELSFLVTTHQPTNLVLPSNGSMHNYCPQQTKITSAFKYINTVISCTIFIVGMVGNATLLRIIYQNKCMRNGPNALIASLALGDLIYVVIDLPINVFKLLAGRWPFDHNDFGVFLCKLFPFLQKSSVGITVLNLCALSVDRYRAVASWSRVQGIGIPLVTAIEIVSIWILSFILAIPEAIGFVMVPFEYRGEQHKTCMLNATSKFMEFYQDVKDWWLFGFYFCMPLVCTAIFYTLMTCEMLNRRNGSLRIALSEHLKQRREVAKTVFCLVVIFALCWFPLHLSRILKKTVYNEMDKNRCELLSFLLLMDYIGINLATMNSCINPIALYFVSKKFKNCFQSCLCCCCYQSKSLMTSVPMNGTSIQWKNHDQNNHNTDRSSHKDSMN

[1] = male subjects, 2.5 mg once daily

In the case of `COC(c1ccccc1)(c1ccccc1)[C@H](Oc1nc(C)cc(C)n1)C(=O)O` [ambrisentan], the “drug interactions (p450 induction or inhibition)” value (p450) is given as “no p450 induction or inhibition”, the “subjects who died during the study or within 30 days of the last dose” value (subjects with PAH; 2.5 mg once daily) is given as 3.1% and the Subjects who died (subjects with PAH; 2.5 mg once daily) is given as 2 (3.1) subjects (% of safety populati. For the same compound, the “subjects who died during the 12-week study” value (subjects with PAH; 5 mg once daily) was “No subjects”, the Subjects who died (subjects with PAH; 5 mg once daily) was 0 (0.0) subjects (% of safety populati and the Subjects who died (subjects with PAH; combined 2.5 mg and 5 mg groups) was 2 (1.6) subjects (% of safety populati. For the same compound, the “male fertility hormones and serial semen samples” value (subjects with PAH; in vivo) was “did not suggest that ambrisentan was associated with an adverse effect on male reproductive potential”, the “mean changes from baseline at Week 12 for serum ALT and AST” value (subjects with PAH; in vivo) was “no notable mean changes” and the “mean total bilirubin and mean alkaline phosphatase” value (subjects with PAH; in vivo) was “notable decrease”. For the same compound, the “subjects who developed elevated serum aminotransferase concentrations >3.0×ULN” value (subjects with PAH; in vivo) was “None”, the “change in testosterone concentration over the 12-week study” value (subjects with PAH; [1]) was -0.09 ± 4.595 nmol/L and the “change over baseline in FSH concentration at Week 12” value (subjects with PAH; [1]) was “+0.58 IU/liter”. For the same compound, the “change in testosterone concentration over the 12-week study” value (subjects with PAH; male subjects, 5 mg once daily) was -2.61 ± 6.962 nmol/L and the Ki (ETA receptor) was about 0.012 nM.
